Experimental data taken from article PMC4965013, “Open Source Drug Discovery with the Malaria Box Compound Collection for Neglected Diseases and Beyond” (PLoS Pathogens, 2016).
Read-outs that look alike come from different tables or passages of the source.

Assays:
Mycobacterium marinum = test: M. marinum antibiotic assay; assay type: cell-based; settings: 10µM
Experimental: Columns FA-FC: Soldati Group (data presented first in this paper). M. marinum, D. discoideum, and Acathamoeba castellani assays. Each compound of the Malaria Box has been assayed at 10 µM in all three assays. First, the antibiotic activity was assayed directly against Mycobacterium marinum in its culture medium. Second, the toxicity and growth inhibitory effect of the compounds was assayed against the amoeba Dictyostelium discoideum in its culture medium. Finally, the “in cellulo” anti-infective activity of each compound was tested using the intracellular infection system Acanthamoeba castellanii-M. marinum. Values have been normalized using the DMSO carrier. For each assay, values have been normalized to 1.00 using the DMSO carrier, which has no detectable effect on D. discoideum nor M. marinum growth, while rifabutin was used as positive control for the antibiotic assay and the infection assay, as it abolishes M. marinum growth (normalized value under 0.10) in broth at 10 µM and intracellularly at 30 µM [150].

Aedes aegypti = Aedes aegypti Scynexis; settings: 10µM
Experimental: Supplement ppat.1005763.s002.xlsx, sheet "S1 Table Heat Map" | column: Aedes aegypti % dead 48hr 10 µM Synexis

HepG2-A16-CD81EGFP cells = settings: 50uM; ref [58, 65]; cited from earlier work
[1] = tested on: Naegleria fowleri trophozoites; test: Naegleria fowleri CellTiter-Glo; assay type: cell-based; settings: 1µM
In short: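 Growth inhibition of Naegleria fowleri trophozoites in vitro, read as cellular ATP by CellTiter-Glo 2.0 luminescence in lysed cells, output in relative light units.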

P. berghei ookinetes = tested on: P. berghei ookinetes; parameters: method as in ref [74] (a number printed in a supplementary file, which may have a reference list of its own: not looked up in the article's list); settings: 1µM; ref [74]; cited from earlier work
T. cruzi Tulahuen = settings: ref [84]; read-out: Trypanosoma cruzi Tulahuen intracellular amastigotes in MRC5 cell line EC50; cited from earlier work
Haemonchus contortus = Haemonchus contortus Scynexis; assay type: cell-based; settings: 10µM
[2] = tested on: P. falciparum NF54 GFP-Pfs16 gametocytes stage IV-V; settings: ref [64], cited from earlier work
[3] = tested on: P. falciparum NF54 gametocytes stage IV/V; test: Gametocyte PrestoBlue resazurin assay Mancama; assay type: cell-based; settings: Plasmodium falciparum, NF54; 5µM; read-out: NF54 gametocyte Late Stage IV/V Resazurin %inhibition
[4] = tested on: P. falciparum NF54 gametocytes stage I-V; parameters: method as in ref [58, 65] (a number printed in a supplementary file, which may have a reference list of its own: not looked up in the article's list); settings: 12.5µM; ref [58, 65]; cited from earlier work
[5] = tested on: Mycobacterium tuberculosis mc26220 replicating; test: microbe, parasite or virus in culture; assay type: cell-based
[6] = tested on: P. falciparum NF54 gametocytes; parameters: method as in ref [72] (a number printed in a supplementary file, which may have a reference list of its own: not looked up in the article's list); settings: 10µM; ref [72]; cited from earlier work
P. falciparum Dd2 = P. falciparum Dd2 asexual blood stages Scynexis; assay type: cell-based; settings: Plasmodium falciparum
[7] = tested on: HIV-1 JR-FL or HIV-1 NL4-3 pseudoviruses; test: HIV-1 pseudovirus infection luciferase; assay type: cell-based
Experimental: Columns FK-GB, Moore group (data presented first in this paper). HIV and HIV-producing cell lines, toxicity and viral suppression. […] MMV compounds were incubated with HIV-1 JR-FL or HIV-1 NL4-3 pseudoviruses and U87-CD4-CCR5 or U87-CD4-CXCR4 cells (obtained through the NIH AIDS Reagent Program, Division of AIDS, NIAID, NIH: U87 CD4+CCR5+ Cells from Dr. HongKui Deng and Dr. Dan R. Littman) respectively for 3 days. Cells were assayed for infection by luciferase production (Bright-Glo Luciferase Substrate, Promega) and cell viability by MTT assay. […] MMV compounds were next incubated with HIV-1 JR-FL or HIV-1 NL4-3 viruses and U87-CD4-CCR5 or U87-CD4-CXCR4 cells respectively for 7 days. Cell supernatants were assayed for viral production by p24 ELISA [153] and cell viability by MTT assay. […] DMSO (5%) was completely toxic to all cells (based on visual inspection) and served as the positive control for MTT assays.

[8] = Human immunodeficiency virus 1, NL43, read-out: HIV JRFL % inhibition rep1 in U87 Luc
[9] = Human immunodeficiency virus 1, NL43, read-out: HIV JRFL % inhibition rep2 in U87 Luc
[10] = Human immunodeficiency virus 1, NL43, read-out: HIV NL4-3 % inhibition rep1 in U87 Luc

Structure (SMILES) | Aedes aegypti % dead 48hr (Aedes aegypti) | HepG2 toxicity rep 1 (HepG2-A16-CD81EGFP cells) | HepG2 toxicity rep 2 (HepG2-A16-CD81EGFP cells) | Naegleria fowleri % growth [1] | P. berghei ookinete assay % inhibition (P. berghei ookinetes) | Haemonchus contortus 96hr % dead (Haemonchus contortus) | gametocyte late stage (IV-V) GFP-MTR % inhibition ([2]; 0.5µM) | gametocyte late stage (IV-V) GFP-MTR % inhibition ([2]; 5µM) | inhibition at 5 µM [3] | gametocyte Stage I % inhibition [4] | gametocyte Stage II % inhibition [4] | gametocyte Stage III % inhibition [4] | gametocyte Stage IV % inhibition [4] | gametocyte Stage V % inhibition [4] | inhibition at 25 µM [5] | gametocyte stage IV-V SYBR Green % inhibition [6] | inhibition at 10 µM (P. falciparum Dd2) | inhibition at 5 µM [7, 8] | inhibition at 5 µM [7, 9] | inhibition at 5 µM [7, 10] | also measured
CCN(CC)c1cc(C)c2cc(NC(=O)c3cccc(OC)c3)ccc2n1 [MMV000498] | 19% | 0.453% | -1.24% | 80% | -7.5% | 100% | -0.167% | 87% | 70% | 84% | 43% | 12% | 1.56% | -1.9% | 19% | 60% | 8% | -9% | 52% | 15% | Mycobacterium marinum relative growth DMSO=1 Antibiotic Assay (Mycobacterium marinum): 0.98; EC50 (T. cruzi Tulahuen): 13.7 µM
COc1cc2cc(C(=O)Nc3ccccc3)c(N)nc2cc1OC [MMV006767] | -3% | 82% | 90% | 95% | 8.6% | 57% | 3% | -13% | 0% | 96% | 56% | 26% | 12% | 23% | 17% | 60% | 40% | 93% | 64% | 96% | 
CCN1CCN(c2cc(C)c3cc(NC(=O)c4ccc(OC)c(OC)c4)ccc3n2)CC1 [MMV019074] | -20% | 1.64% | -0.0766% | 88% | -2.9% | 31% | -6.56% | 4% | 64% | 66% | 32% | -6% | 16% | 9% | 15% | 47% | 80% | 11% | -62% | 13% | EC50 (T. cruzi Tulahuen): 6.59 µM
COc1ccc(C(=O)Nc2ccc3nc(N4CCCCC4)cc(C)c3c2)cc1OC [MMV019758] | 6% | -1% | -1.21% | 87% | -18.9% | 75% | 3.3% | 51% | 18% | 72% | 41% | 3.44% | 8% | 0.3% | 21% | 49% | 36% | 4.56% | -50% | 7% | Mycobacterium marinum relative growth DMSO=1 Antibiotic Assay (Mycobacterium marinum): 1.01; EC50 (T. cruzi Tulahuen): 14.6 µM
CCOC(=O)c1cnc2ccc(OC)cc2c1NCc1ccccc1 [MMV665813] | -2% | -1.52% |  | 91% | -6.8% | 1% | 10% | 2% | 0% | 68% | 46% | -0.559% | 15% | 12% | 40% | 61% | 55% | -33% | -10% | -135% | Mycobacterium marinum relative growth DMSO=1 Antibiotic Assay (Mycobacterium marinum): 0.86; EC50 (T. cruzi Tulahuen): 13 µM
